These results are taken from patent US20080145453A1, “Novel Dihydropyrimidine Derivatives And Their Use As Anti-Cancer Agents” (priority 2005, published 2008).

Experiment [1] deals with T1, human Eg5 (monomeric construct Eg52-386) (Homo sapiens, UniProt P52732).
T1 construct: the basal ATPase activity was measured using 1-4 μM of Eg5 (2-386) for the above test; made in house
T1 sequence (P52732 2-386): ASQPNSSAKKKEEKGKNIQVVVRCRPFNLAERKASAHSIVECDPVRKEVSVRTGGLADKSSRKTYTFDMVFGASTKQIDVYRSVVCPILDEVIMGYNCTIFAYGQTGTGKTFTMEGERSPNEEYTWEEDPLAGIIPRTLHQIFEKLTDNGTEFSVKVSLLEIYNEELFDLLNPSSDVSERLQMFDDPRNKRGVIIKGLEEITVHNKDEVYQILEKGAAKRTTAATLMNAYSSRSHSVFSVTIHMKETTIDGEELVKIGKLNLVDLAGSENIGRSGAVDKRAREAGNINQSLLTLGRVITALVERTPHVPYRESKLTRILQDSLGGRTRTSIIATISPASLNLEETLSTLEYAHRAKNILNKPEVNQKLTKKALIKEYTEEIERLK
The experiment is described as follows: In vitro inhibition of the ATPase activity of kinesin Eg5 (pyruvate kinase/lactate dehydrogenase coupled assay). In kind it is biochemical. The conditions noted are these: for % inhibition: in vitro ATPase activity of Eg5, inhibitor concentration not given; for IC50: in vitro inhibition of ATPase activity of Eg5. As for the experimental part: All the assays were carried out at ambient temperature using the TECAN 96-well Sunrise photometer with a final volume of 200-250 μl per well. The ATPase contents were measured using the pyruvate kinase/lactate dehydrogenase protocol in an A25A buffer (25 mM potassium ACES, pH 6.9, 2 mM magnesium acetate, 2 mM potassium EGTA, 0.1 mM potassium EDTA, 1 mM mercaptoethanol) . In the […] of MT (microtubules) stabilized with paclitaxel, 300 nM of Eg52-386 were used for the test and, in the absence of MT, the basal ATPase activity was measured using 1-4 μM of Eg5 (2-386) for the above test or the malachite green test. For optimal solubility of the inhibitor, the assays were carried out in the presence of up to 2.2% of DMSO. […] The data were analyzed using a Kaleidagraph 3.0 (Synergy Software) and Microsoft Excel, so as to obtain the IC50 values.
The IC50 values for the in vitro inhibition of the ATPase activity of the kinesin motor proteins are determined according to the method described in S. DeBonis et al. (2003) Biochemistry 42, 338-349. Monastrol was used as a positive control. When necessary, the concentrations of inhibitor were adjusted according to the initial IC50. Each concentration of inhibitor was measured one to three times and averaged data are indicated with the margins of error±the standard deviation.

Experiment [2] concerns the target T2, kinesin Eg5 (Homo sapiens, UniProt P52732).
T2 sequence (P52732 1-1056): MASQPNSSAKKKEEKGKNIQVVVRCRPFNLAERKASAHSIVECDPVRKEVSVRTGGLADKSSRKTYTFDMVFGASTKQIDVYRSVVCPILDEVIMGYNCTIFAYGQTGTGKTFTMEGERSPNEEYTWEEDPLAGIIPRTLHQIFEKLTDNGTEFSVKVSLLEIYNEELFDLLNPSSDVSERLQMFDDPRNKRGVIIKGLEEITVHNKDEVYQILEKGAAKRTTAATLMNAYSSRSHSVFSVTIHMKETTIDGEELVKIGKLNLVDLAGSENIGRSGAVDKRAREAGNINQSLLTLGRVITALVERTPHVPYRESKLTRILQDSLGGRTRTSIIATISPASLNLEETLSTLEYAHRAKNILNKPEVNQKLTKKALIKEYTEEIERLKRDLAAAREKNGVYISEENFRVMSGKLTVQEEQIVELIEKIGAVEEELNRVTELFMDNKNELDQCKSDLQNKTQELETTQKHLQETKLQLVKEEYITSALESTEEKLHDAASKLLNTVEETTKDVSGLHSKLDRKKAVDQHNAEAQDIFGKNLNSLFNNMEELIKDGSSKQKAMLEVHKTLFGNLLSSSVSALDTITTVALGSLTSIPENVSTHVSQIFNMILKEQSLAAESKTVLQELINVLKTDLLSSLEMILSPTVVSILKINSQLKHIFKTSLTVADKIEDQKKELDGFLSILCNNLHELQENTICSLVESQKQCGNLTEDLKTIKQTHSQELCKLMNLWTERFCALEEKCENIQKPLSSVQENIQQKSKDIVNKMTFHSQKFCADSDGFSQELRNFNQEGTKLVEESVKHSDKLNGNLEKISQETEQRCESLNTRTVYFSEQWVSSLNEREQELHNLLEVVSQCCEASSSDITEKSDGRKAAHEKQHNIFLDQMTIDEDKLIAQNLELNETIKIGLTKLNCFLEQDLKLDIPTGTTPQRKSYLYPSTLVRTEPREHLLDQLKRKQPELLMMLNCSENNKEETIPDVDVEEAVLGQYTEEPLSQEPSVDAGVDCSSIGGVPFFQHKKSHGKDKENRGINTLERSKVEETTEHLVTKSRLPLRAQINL
The conditions noted are these: prior-art values given in the background; read-out: antimitotic effect IC50; cited from earlier work.

Each structure is given as a SMILES string. Bounds are passed on as bounds.

One may read the % inhibition as the share of the control response that was lost under treatment. The IC50 is the concentration needed to halve the response being measured.

Turning to `CC1=C(C(=O)c2cccc(Cl)c2)C(c2cccc(O)c2)NC(=S)N1` (stereo not drawn) [Compound 32], in experiment [1], the “% inhibition” value was “≧90%^” and the IC50 was 0.5 µM.

`CC1=C(C(=O)c2ccccc2)C(c2cccc(O)c2)NC(=S)N1` (stereo not drawn) [Compound 17]: in experiment [1], the “% inhibition” value was “≧90%^” and the IC50 worked out at 0.25 µM.

`CCOC(=O)C1=C(C)NC(=S)NC1c1ccccc1` (stereo not drawn) [Compound 1]: in experiment [1], the “% inhibition” value worked out at 80% and the concentration for half-maximal inhibition (IC50) is 9.5 µM.

For `CCOC(=O)C1=C(C)NC(=S)NC1c1cccc(OC)c1` (stereo not drawn) [Compound 21], in experiment [1], the “% inhibition” value is 20% and the IC50 is 57 µM.

In the case of `CC1=C(C(=O)c2ccccc2)C(c2ccccc2)NC(=O)N1C` (stereo not drawn) [Compound 26], in experiment [1], the “% inhibition” value is given as 84% and the IC50 was 5 µM.

Regarding `CC1=C(C(=O)c2ccccc2)C(c2ccc(O)cc2)NC(=S)N1C` (stereo not drawn) [Compound 19], in experiment [1], the “% inhibition” value was 87% and the concentration for half-maximal inhibition (IC50) is 24 µM.

As for `CC(=O)C1=C(C)NC(=S)NC1c1cccc(O)c1` (stereo not drawn) [Compound 15], in experiment [1], the “% inhibition” value is recorded as “≧90%^” and the IC50 turned out to be 0.51 µM.

In the case of `CCOC(=O)C1=C(C)NC(=S)NC1c1ccc(O)cc1` (stereo not drawn) [Compound 3], in experiment [1], the “% inhibition” value is 20% and the IC50 came to 212 µM.

On to `CC1=C(C(=O)OCc2ccccc2)C(c2ccccc2)NC(=S)N1` (stereo not drawn) [Compound 5], for which, in experiment [1], the “% inhibition” value amounted to 40% and the IC50 worked out at 11.8 µM.

In the case of `CCOC(=O)C1=C(C)NC(=S)NC1c1ccccc1F` (stereo not drawn) [Compound 22], in experiment [1], the “% inhibition” value is 60% and the IC50 came to 20 µM.

Take `CC1=C(C(=O)c2cccc(I)c2)C(c2cccc(O)c2)NC(=S)N1` (stereo not drawn) [Compound 33]: in experiment [1], the “% inhibition” value is listed as “≧90%^” and the concentration for half-maximal inhibition (IC50) turned out to be 0.5 µM.

Regarding `CC1=C(C(=O)c2ccccc2)C(c2cccc(O)c2)NC(=O)N1C` (stereo not drawn) [Compound 27], in experiment [1], the “% inhibition” value was determined as 85% and the IC50 came out at 0.8 µM.

Consider `CC1=C(C(=O)c2ccccc2)C(c2cccc(O)c2)NC(=S)N1C` (stereo not drawn) [Compound 18], for which, in experiment [1], the “% inhibition” value is listed as “≧90%^”.

Turning to `COc1cccc(C(=O)C2=C(C)NC(=S)NC2c2cccc(O)c2)c1` (stereo not drawn) [Compound 34], in experiment [1], the “% inhibition” value was “≧90%^” and the half-inhibitory concentration (IC50) worked out at 1.1 µM.

For `CC1=C(C(=O)OCc2ccccc2)C(c2cccc(O)c2)NC(=S)N1` (stereo not drawn) [Compound 6], in experiment [1], the “% inhibition” value is “≧90%^” and the IC50 was found to be 10.3 µM.

Consider `CC1=C(C(=O)c2cccc(F)c2)C(c2cccc(O)c2)NC(=S)N1` (stereo not drawn) [Compound 31], for which, in experiment [1], the “% inhibition” value is 87% and the half-maximal inhibitory concentration (IC50) turned out to be 0.82 µM.

On to `CCOC(=O)C1=C(C)NC(=S)NC1c1cccc(Cl)c1` (stereo not drawn) [Compound 20], for which, in experiment [1], the “% inhibition” value was 60% and the half-inhibitory concentration (IC50) amounted to 10 µM.

As to `CCOC(=O)C1=C(C(C)C)NC(=S)NC1c1cccc(O)c1` (stereo not drawn) [Compound 29], in experiment [1], the “% inhibition” value is 80% and the IC50 is 8.5 µM.

`CC(=O)C1=C(C)N(C)C(=S)NC1c1cccc(O)c1` (stereo not drawn) [Compound 16]: in experiment [1], the “% inhibition” value turned out to be 40% and the IC50 was determined as 133 µM.

As for `CCOC(=O)C1=C(C)N(C)C(=S)NC1c1ccccc1` (stereo not drawn) [Compound 7], in experiment [1], the “% inhibition” value stood at 60% and the half-maximal inhibitory concentration (IC50) was found to be 21 µM.

As to `C=CCN1C(=S)NC(c2cccc(O)c2)C(C(=O)c2ccccc2)=C1C(F)(F)F` (stereo not drawn) [Compound 28], in experiment [1], the “% inhibition” value is recorded as 70% and the IC50 was determined as 17 µM.

Take `CC(=O)C1=C(C)NC(=S)NC1c1ccccc1` (stereo not drawn) [Compound 9]: in experiment [1], the “% inhibition” value is “≧90%^” and the IC50 came out at 24 µM.

In the case of `CC1=C(C(=O)c2ccccc2)C(c2ccc(O)cc2)NC(=S)N1` (stereo not drawn) [Compound 11], in experiment [1], the “% inhibition” value is given as “≧90%^” and the half-inhibitory concentration (IC50) is 14.7 µM.

For `COc1ccc(C2NC(=S)NC(C)=C2C(=O)OCc2ccccc2)cc1` (stereo not drawn) [Compound 4], in experiment [1], the “% inhibition” value stood at 40% and the half-inhibitory concentration (IC50) was 6.6 µM.

On to `CCOC(=O)C1=C(C)NC(=S)NC1c1ccccc1Cl` (stereo not drawn) [Compound 24], for which, in experiment [1], the “% inhibition” value was 60% and the half-maximal inhibitory concentration (IC50) was found to be 32 µM.

As to `CCOC(=O)C1=C(C)NC(=S)NC1c1cccc(F)c1` (stereo not drawn) [Compound 25], in experiment [1], the “% inhibition” value is listed as 60% and the IC50 worked out at 14 µM.

Turning to `CC(=O)C1=C(C)N(C)C(=S)NC1c1ccccc1` (stereo not drawn) [Compound 12], in experiment [1], the “% inhibition” value stood at 40% and the IC50 came to 80 µM.

For the compound `CC1=C(C(=O)OCc2ccccc2)C(c2cccc(O)c2)NC(=S)N1C` (stereo not drawn) [Compound 14], in experiment [1], the “% inhibition” value worked out at 48% and the half-maximal inhibitory concentration (IC50) turned out to be 9.8 µM.

As for `CCOC(=O)C1=C(C)NC(=S)NC1c1cccc(O)c1` (stereo not drawn) [Compound 2], in experiment [1], the “% inhibition” value was “≧90%^” and the IC50 amounted to 16 µM.

Turning to `CCOC(=O)C1=C(C)N(C)C(=S)NC1c1cccc(O)c1` (stereo not drawn) [Compound 8], in experiment [1], the “% inhibition” value is “≧90%^” and the IC50 amounted to 6.3 µM.

With `CCOC(=O)C1=C(CC)N(C)C(=S)NC1c1cccc(O)c1` (stereo not drawn) [Compound 30], in experiment [1], the “% inhibition” value is listed as “≧90%^” and the IC50 was determined as 10 µM.

As for `CCOC(=O)C1=C(C)NC(=S)NC1c1cccc(O)c1` (stereo not drawn) [Monastrol], the half-maximal inhibitory concentration (IC50) in experiment [2] is more than 14 µM.

Regarding `CC1=C(C(=O)c2ccccc2)C(c2ccccc2)NC(=S)N1C` (stereo not drawn) [Compound 13], in experiment [1], the “% inhibition” value is “≧90%^” and the IC50 is 1.1 µM.

On to `CC(=O)C1=C(C)NC(=S)NC1c1ccc(O)cc1` (stereo not drawn) [Compound 10], for which, in experiment [1], the “% inhibition” value is 80% and the 50% inhibitory concentration (IC50) came out at 56 µM.
